Reference: the supplement of paper PMC10307832

Compound: CCN(CCO)CCCC(C)Nc1ccnc2cc(Cl)ccc12 [Hydroxychloroquine] + CC(C)C[C@H](NC(=O)[C@H](Cc1ccccc1)NC(=O)c1cnccn1)B(O)O [Bortezomib] (partner 0.002 µM)
Assay: relative viability (nuclei count vs DMSO), 5 days (fraction); higher = more cells survive
In short: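 One day after seeding in 1536-well plates, lung cancer cell lines were dosed by pin tool. Dosing was either single-drug or a fixed anchor-drug dose plus five library-drug doses (not always all listed) in √10 steps. After 5 days, nuclei were stained in one fix-and-stain step and counted on 4× images, and relative viability is the nuclei count of treated wells over that of vehicle wells, given as the median of duplicate plates.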

| Cell Line | relative viability (first compound 0.5 µM) | relative viability (first compound 1.581 µM) | relative viability (first compound 5 µM) | relative viability (first compound 15.81 µM) | relative viability (first compound 50 µM) |
| --- | --- | --- | --- | --- | --- |
| H3255 | 0.835 | 0.743 | 0.722 | 0.68 | 0.702 |
| EPLC-272H | 0.762 | 0.579 | 0.736 | 0.861 | 1.08 |
| RERF-LC-KJ | 1.15 | 1.1 | 0.984 | 1.15 | 1.08 |
| EKVX | 1.26 | 0.925 | 1.04 | 0.916 | 1.09 |
| ChaGo-K-1 | 1.04 | 0.895 | 0.687 | 1.06 | 1.02 |
| NCI-H23 | 1.15 | 1.14 | 0.884 | 1.02 | 0.881 |
| EMC-BAC-2 | 0.981 | 1.03 | 1.06 | 1.12 | 1.17 |
| LOU-NH91 | 0.467 | 0.507 | 0.492 | 0.475 | 0.539 |
| LU99A | 1.11 | 1.02 | 1.11 | 1.08 | 1.26 |
| NCI-H520 | 0.639 | 0.606 | 0.662 | 0.658 | 0.511 |
| 201T | 1.07 | 1.09 | 1.1 | 1.07 | 1.11 |
| NCI-H2405 | 1.03 | 0.918 | 1.02 | 0.989 | 1.04 |
| NCI-H1703 | 0.322 | 0.273 | 0.284 | 0.291 | 0.316 |
| NCI-H1755 | 0.955 | 0.868 | 0.918 | 0.927 | 0.953 |
| NCI-H2087 | 0.829 | 0.959 | 0.835 | 0.869 | 1.1 |
| NCI-H2228 | 1 | 1.18 | 1 | 1.05 | 1.29 |
| NCI-H838 | 0.9 | 0.819 | 0.663 | 0.79 | 0.805 |
| NCI-H661 | 0.795 | 0.719 | 0.652 | 0.761 | 0.825 |
| NCI-H596 | 1.04 | 0.857 | 0.847 | 0.999 | 1.19 |
| EBC-1 | 0.471 | 0.51 | 0.505 | 0.519 | 0.459 |
| NCI-H727 | 0.975 | 0.749 | 0.89 | 0.823 | 0.885 |
| NCI-H1299 | 1.01 | 1.01 | 1.04 | 1.03 | 0.942 |
| NCI-H1993 | 1.01 | 0.884 | 1.04 | 1.13 | 1.03 |

| Cell Line | relative viability (first compound 0.5 µM) | relative viability (first compound 1.581 µM) | relative viability (first compound 5 µM) | relative viability (first compound 15.81 µM) | relative viability (first compound 50 µM) |
| --- | --- | --- | --- | --- | --- |
| PC-14 | 0.783 | 0.959 | 0.925 | 0.788 | 0.852 |
| NCI-H1437 | 0.516 | 0.737 | 0.505 | 0.483 | 0.446 |
| LCLC-103H | 1.13 | 0.837 | 1.04 | 1.15 | 1.06 |
| NCI-H460 | 1.08 | 1.05 | 1.1 | 1.39 | 1.36 |
| SW 1573 | 0.966 | 1.17 | 0.931 | 0.947 | 1.1 |
| BEN | 0.693 | 0.802 | 0.977 | 0.824 | 0.949 |
| LC-2-ad | 0.974 | 1.03 | 1.04 | 1.01 | 1.12 |
| COR-L23 | 0.89 | 1.17 | 1 | 1.28 | 1.21 |
| NCI-H1650 | 0.203 | 0.221 | 0.218 | 0.227 | 0.219 |
| SK-LU-1 | 1.27 | 1.04 | 1.29 | 1.18 | 1.37 |
| NCI-H1915 | 1.07 | 0.953 | 1.02 | 0.923 | 1.03 |
| NCI-H647 | 1.07 | 1.19 | 0.876 | 1.15 | 0.813 |
| IA-LM | 0.695 | 0.83 | 0.909 | 0.758 | 1 |
| NCI-H2009 | 1.02 | 1.04 | 0.956 | 0.963 | 1.07 |
| NCI-H2126 | 1.11 | 1.07 | 1.09 | 1.1 | 1.18 |
| LXF-289 | 1.02 | 1.01 | 0.939 | 1.01 | 1 |
| NCI-H1563 | 0.891 | 0.784 | 0.923 | 0.779 | 0.759 |
| HCC-44 | 0.875 | 0.865 | 0.883 | 0.914 | 0.955 |
| PC-3 [JPC-3] | 0.787 | 0.841 | 0.812 | 0.694 | 0.94 |
| HOP-62 | 0.652 | 0.9 | 0.751 | 0.945 | 1.02 |
| NCI-H1666 | 0.907 | 0.658 | 0.652 | 0.714 | 0.772 |
| NCI-H1355 | 1.24 | 1.19 | 1.09 | 1.12 | 1.25 |
| HCC-827 | 1.03 | 1.04 | 1.07 | 1.16 | 1.01 |

| Cell Line | relative viability (first compound 0.5 µM) | relative viability (first compound 1.581 µM) | relative viability (first compound 5 µM) | relative viability (first compound 15.81 µM) | relative viability (first compound 50 µM) |
| --- | --- | --- | --- | --- | --- |
| HARA | 1.1 | 1.19 | 1.02 | 1.13 | 1.06 |
| HCC-366 | 1.1 | 1.15 | 1.04 | 1.06 | 1.16 |
| NCI-H322M | 1.31 | 1.27 | 1.16 | 1.36 | 1.2 |
| NCI-H2347 | 0.979 | 0.911 | 0.931 |  | 0.878 |
| NCI-H1975 | 0.343 | 0.333 | 0.342 | 0.379 | 0.354 |
| NCI-H441 |  | 0.426 | 0.453 | 0.552 | 0.77 |
| ABC-1 | 0.263 | 0.271 | 0.277 | 0.297 | 0.235 |
| A-427 | 0.956 | 0.946 | 0.982 | 0.961 | 1.06 |
| LCLC-97TM1 | 0.453 | 0.764 | 0.483 | 0.523 | 0.529 |
| HCC-15 | 0.951 | 0.918 | 1.08 | 1.09 | 1.2 |
| NCI-H650 | 0.911 | 0.759 |  | 0.901 | 0.748 |
| UMC-11 | 0.626 | 0.822 | 0.863 | 0.657 | 1.15 |
| NCI-H1651 | 0.947 | 0.932 | 0.866 | 0.982 | 0.943 |
| NCI-H1792 | 0.979 | 0.955 | 1.02 | 1.05 | 1.17 |
| NCI-H2023 | 1.06 | 0.942 | 1.01 | 0.964 | 1.03 |
| COR-L 105 | 0.879 | 0.664 | 0.694 | 0.737 | 0.891 |
| NCI-H1734 | 0.98 | 0.918 | 1.03 | 0.918 | 1.01 |
| NCI-H3122 | 0.981 | 1.01 | 1.05 | 1.05 | 1.07 |
| CAL-12T | 1.11 |  | 0.922 | 0.795 | 0.926 |
| HCC-78 | 0.425 | 0.482 | 0.525 | 0.519 | 0.568 |
| NCI-H2085 | 0.987 | 0.94 | 1.24 | 1.07 | 1.1 |
